Experimental data: US20080119456A1, “Substituted Thiazoleacetic Acid as Crth2 Ligands” (priority 2004, published 2008)
pIC50: −log10 of the molar value.

Legend:
human CRTH2-Rluc = biological target: T1, human CRTH2-Rluc (Homo sapiens, UniProt Q9Y5Y4, V204A); experiment: Functional antagonist BRET assay on HEK293 cells stably expressing CRTH2-Rluc and GFP2-β-arr2; assay type: cell-based; details: antagonist incubated 15 minutes before agonist, read-out: Antag. IC50
T1 construct: expressed in transfected cells
T1 sequence (Q9Y5Y4 1-395 V204A): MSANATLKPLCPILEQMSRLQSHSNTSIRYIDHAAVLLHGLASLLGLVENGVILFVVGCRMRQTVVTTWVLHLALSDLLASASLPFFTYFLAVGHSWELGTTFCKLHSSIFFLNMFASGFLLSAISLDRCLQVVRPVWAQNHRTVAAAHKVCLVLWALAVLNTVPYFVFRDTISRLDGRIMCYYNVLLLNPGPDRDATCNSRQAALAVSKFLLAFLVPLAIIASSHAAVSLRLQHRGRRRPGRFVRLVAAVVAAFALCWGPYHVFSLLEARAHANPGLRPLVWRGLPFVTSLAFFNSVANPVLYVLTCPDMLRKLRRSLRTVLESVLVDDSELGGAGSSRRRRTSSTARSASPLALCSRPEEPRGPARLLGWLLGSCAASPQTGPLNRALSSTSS
From the text: (§1) Generation/origin of the cDNA Constructs. The coding sequence of the human CRTH2 receptor (genbank accession no NM_004778) was amplified by PCR from a human hippocampus cDNA library and inserted into the pcDNA3.1(+) expression vector (invitrogen) via 5′ HindIII and 3′ EcoRI. To generate a CRTH2-Renilla luciferase (CRTH2-Rluc) fusion protein, the CRTH2 coding sequence without a STOP codon and Rluc were amplified, fused in frame by PCR and subcloned into the pcDNA3.1(+)Zeo expression vector (invitrogen). Human β-arrestin2 (β-arr2) N-terminally tagged with GFP^2 (βarr2-GFP^2) and Renilla luciferase were purchased from BioSignal Packard Inc, (Montreal, Canada). The sequence identity of the construct was verified by restriction endonuclease digests and sequencing in both directions on an ABI Prism (Applied Biosystems, Foster City, Calif.).
(§2) Cell Culture and Transfection. COS-7 cells were grown in Dulbecco's modified Eagle's medium (DMEM) 1885 supplemented with 10% fetal bovine serum, 100 units/ml penicillin, […] streptomycin, and kept at 37° C. in a 10% CO2 atmosphere. HEK293 cells were maintained in Minimum Essential medium (MEM) supplemented with 10% (v/v) heat inactivated fetal calf serum (HIFCS), 2 mM Glutamax™-I, 1% non essential amino acids (NEAA), 1% sodium pyruvate and 10 μg/ml gentamicin. For binding experiments, COS7 cells were transiently transfected with the CRTH2 receptor using a calcium phosphate-DNA coprecipitation method with the addition of chloroquine (as described by Hoist et al., 2001*). To perform the functional Bioluminescence Resonance Energy Transfer (BRET) assays, a HEK293 cell clone stably expressing βarr2-GFP^2 and CRTH2-Rluc was generated (CRTH2-HEK293 cells).
BRET assay. Functional BRET assays were performed on HEK293 cells stably expressing human CRTH2-Rluc and GFP^2-β-arr2. Prior to their use in the BRET assay cells were detached and re-suspended in D-PBS with 1000 mg/L L-Glucose at a density of 2×10^6 cells/mL. DeepBlueC™ was diluted to 50 μM in D-PBS with 1000 mg/L L-Glucose (light sensitive). 100 μL of cell suspension was transferred to wells in a 96-well microplate (white OptiPlate) and placed in the Mithras LB 940 instrument (BERTHOLD TECHNOLOGIES, Bad Wildbad, Germany). 12 μL/well agonist was then injected by injector 1 and 10 μL/well DeepBlueC™ was injected simultaneously by injector 2. Five seconds after the injections the light output from the well was measured sequentially at 400 nm and 515 nm, and the BRET signal (mBRET ratio) was calculated by the ratio of the fluorescence emitted by GFP^2-β-arr2 (515 nm) over the light emitted by the receptor-Rluc (400 nm). Antagonists were added before placing the microplates into the Mithras LB 940 and allowed to incubate for 15 minutes prior to the addition of agonist and DeepBlueC™. Compounds were dissolved in DMSO and the final DMSO concentration was kept constant at 1% in the assay.
(§3) Curve analysis was performed with the GraphPadPrism software 3.0 (Graphpad Prism Inc., San Diego, USA) and IC50 values were calculated as a measure of the antagonistic potencies.

human CRTH2 receptor = biological target: T2, human CRTH2 receptor (Homo sapiens, UniProt Q9Y5Y4, V204A); experiment: Receptor binding assay: [3H]PGD2 competition on whole COS-7 cells transfected with CRTH2; details: 0.1 nM [3H]PGD2, whole cells, 3 h at 4° C.
T2 construct: expressed in transfected cells; host or cells: COS-7 cells, transient, pcDNA3.1(+)
T2 sequence (Q9Y5Y4 1-395 V204A): T1 sequence (Q9Y5Y4 1-395 V204A)
From the text: as §1, §2
Binding assay. 24 h after transfection COS-7 cells were seeded into 96 well plates at a density of 30.000 cells/well. Competition binding experiments on whole cells were then performed about 18-24 h later using 0.1 nM [^3H]PGD2 (NEN, 172 Ci/mmol) in a binding buffer consisting of HBSS (GIBCO) and 10 mM HEPES. Competing ligands were diluted in DMSO which was kept constant at 1% (v/v) of the final incubation volume. Total and nonspecific binding were determined in the absence and presence of 10 μM PGD2. Binding reactions were routinely conducted for 3 h at 4° C. and terminated by 2 washes (100 μl each) with ice cold binding buffer. Radioactivity was determined by liquid scintillation counting in a TOPCOUNTER (Packard) following over night incubation in Microscint 20. Stable HEK293 cells were seeded at a density of 30.000 cells/well 18-24 h prior to the binding assay which was performed essentially as described for COS7 cells above. Determinations were made in duplicates.
as §3

Structure (SMILES) | pIC50 (human CRTH2-Rluc) | pIC50 (human CRTH2 receptor)
COc1ccc(-c2nc(C(c3ccccc3)c3ccccc3)sc2CC(=O)O)cc1 [Compound A12, [2-Benzhydryl-4-(4-methoxy-phenyl)-thiazol-5-yl]-acetic acid] | 5.30 to 6.30 | > 6.30
O=C(O)Cc1sc(C(c2ccc(F)cc2)c2ccc(F)cc2)nc1-c1ccc(F)c(F)c1 [Compound A25, [2-[Bis-(4-fluoro-phenyl)-methyl]-4-(3,4-difluoro-phenyl)-thiazol-5-yl]-acetic acid] | > 6.30 | > 6.30
O=C(O)Cc1sc(C(c2ccccc2)c2ccc(F)cc2)nc1-c1ccc(Cl)cc1 (centres unmarked) [Compound A13, {4-(4-Chloro-phenyl)-2-[(4-fluoro-phenyl)-phenyl-methyl]-thiazol-5-yl}-acetic acid] | > 6.30 | > 6.30
O=C(O)Cc1sc(C(c2ccccc2)c2ccccc2)nc1-c1ccc(Cl)cc1 [Compound A1, [2-Benzhydryl-4-(4-chloro-phenyl)-thiazol-5-yl]-acetic acid] | > 6.30 | > 6.30
O=C(O)Cc1sc(C(Cc2ccccc2)c2ccccc2)nc1-c1ccc(Cl)cc1 (centres unmarked) [Compound A5, [4-(4-Chloro-phenyl)-2-(1,2-diphenyl-ethyl)-thiazol-5-yl]-acetic acid] | 5.30 to 6.30 | > 6.30
O=C(O)Cc1sc(C(c2ccccc2)c2ncccc2Cl)nc1-c1ccc(Cl)cc1 (centres unmarked) [Compound A29, {4-(4-Chloro-phenyl)-2-[(3-chloro-pyridin-2-yl)-phenyl-methyl]-thiazol-5-yl}-acetic acid] |  | > 6.30
O=C(O)Cc1sc(C(Cc2ccccc2)c2ccc(Cl)cc2)nc1-c1ccc(F)cc1 (centres unmarked) [Compound A7, [2-[1-(4-Chloro-phenyl)-2-phenyl-ethyl]-4-(4-fluoro-phenyl)-thiazol-5-yl]-acetic acid] | > 6.30 | > 6.30
COc1ccc(C(c2ccccc2)c2nc(-c3ccc(F)cc3)c(CC(=O)O)s2)cc1 (centres unmarked) [Compound A15, {4-(4-Fluoro-phenyl)-2-[(4-methoxy-phenyl)-phenyl-methyl]-thiazol-5-yl}-acetic acid] | > 6.30 | > 6.30
O=C(O)Cc1sc(Cc2ccccc2-c2ccccc2)nc1-c1ccc(Cl)cc1 [Compound A34, [2-Biphenyl-2-ylmethyl-4-(4-chloro-phenyl)-thiazol-5-yl]-acetic acid] | > 6.30 | > 6.30
COc1ccc(C(c2ccccn2)c2nc(-c3ccc(Cl)cc3)c(CC(=O)O)s2)cc1 (centres unmarked) [Compound A31, {4-(4-Chloro-phenyl)-2-[(4-methoxy-phenyl)-pyridin-2-yl-methyl]-thiazol-5-yl}-acetic acid] | > 6.30 | > 6.30
COc1ccc(-c2ccccc2Cc2nc(-c3ccc(F)cc3)c(CC(=O)O)s2)cc1 [Compound A40, [4-(4-Fluoro-phenyl)-2-(4′-methoxy-biphenyl-2-ylmethyl)-thiazol-5-yl]-acetic acid] | > 6.30 | > 6.30
COc1ccc(C(c2ccc(OC)cc2)c2nc(-c3ccc(F)cc3)c(CC(=O)O)s2)cc1 [Compound A20, [2-[Bis-(4-methoxy-phenyl)-methyl]-4-(4-fluoro-phenyl)-thiazol-5-yl]-acetic acid] | > 6.30 | > 6.30
O=C(O)Cc1sc(C(c2ccccc2)C2CCCCC2)nc1-c1ccc(Cl)cc1 (centres unmarked) [Compound A32, [4-(4-Chloro-phenyl)-2-(cyclohexyl-phenyl-methyl)-thiazol-5-yl]-acetic acid] |  | 5.30 to 6.30
O=C(O)Cc1sc(Cc2ccccc2-c2cccc(OC(F)(F)F)c2)nc1-c1ccc(F)cc1 [Compound A44, [4-(4-Fluoro-phenyl)-2-(3′-trifluoromethoxy-biphenyl-2-ylmethyl)-thiazol-5-yl]-acetic acid] |  | > 6.30
COc1ccc(C(c2ccccc2)c2nc(-c3ccc(Cl)cc3)c(CC(=O)O)s2)cc1 (centres unmarked) [Compound A16, {4-(4-Chloro-phenyl)-2-[(4-methoxy-phenyl)-phenyl-methyl]-thiazol-5-yl}-acetic acid] | > 6.30 | > 6.30
O=C(O)Cc1sc(Cc2ccccc2-c2ccccc2)nc1-c1ccc(F)cc1 [Compound A36, [2-Biphenyl-2-ylmethyl-4-(4-fluoro-phenyl)-thiazol-5-yl]-acetic acid] | > 6.30 | > 6.30
CC(=O)Nc1cccc(-c2ccccc2Cc2nc(-c3ccc(F)cc3)c(CC(=O)O)s2)c1 [Compound A39, [2-(3′-Acetylamino-biphenyl-2-ylmethyl)-4-(4-fluoro-phenyl)-thiazol-5-yl]-acetic acid] |  | 5.30 to 6.30
O=C(O)Cc1sc(C(NC(=O)c2ccc(C(F)(F)F)cc2)c2ccccc2)nc1-c1ccc(F)cc1 (centres unmarked) [Compound A19, {4-(4-Fluoro-phenyl)-2-[phenyl-(4-trifluoromethyl-benzoylamino)-methyl]-thiazol-5-yl}-acetic acid] | < 5.30 | > 6.30
N#Cc1cccc(-c2ccccc2Cc2nc(-c3ccc(F)cc3)c(CC(=O)O)s2)c1 [Compound A43, [2-(3′-Cyano-biphenyl-2-ylmethyl)-4-(4-fluoro-phenyl)-thiazol-5-yl]-acetic acid] |  | > 6.30
O=C(O)Cc1sc(C(c2ccc(F)cc2)c2ccc(F)cc2)nc1-c1cccc(F)c1 [Compound A27, [2-[Bis-(4-fluoro-phenyl)-methyl]-4-(3-fluoro-phenyl)-thiazol-5-yl]-acetic acid] | > 6.30 | > 6.30
O=C(O)Cc1sc(C(c2ccccc2)c2ccc(O)cc2)nc1-c1ccc(F)cc1 (centres unmarked) [Compound A22, {4-(4-Fluoro-phenyl)-2-[(4-hydroxy-phenyl)-phenyl-methyl]-thiazol-5-yl}-acetic acid] | > 6.30 | > 6.30
COc1ccccc1-c1ccccc1Cc1nc(-c2ccc(F)cc2)c(CC(=O)O)s1 [Compound A41, [4-(4-Fluoro-phenyl)-2-(2′-methoxy-biphenyl-2-ylmethyl)-thiazol-5-yl]-acetic acid] |  | > 6.30
O=C(O)Cc1sc(Cc2ccccc2Oc2ccccc2)nc1-c1ccc(Cl)cc1 [Compound A35, [4-(4-Chloro-phenyl)-2-(2-phenoxy-benzyl)-thiazol-5-yl]-acetic acid] |  | 5.30 to 6.30
CCC(c1ccccc1)c1nc(-c2ccc(Cl)cc2)c(CC(=O)O)s1 (centres unmarked) [Compound A6, [4-(4-Chloro-phenyl)-2-(1-phenyl-propyl)-thiazol-5-yl]-acetic acid] |  | > 6.30
COc1ccc(C(c2ccccn2)c2nc(-c3ccc(F)cc3)c(CC(=O)O)s2)cc1 (centres unmarked) [Compound A30, {4-(4-Fluoro-phenyl)-2-[(4-methoxy-phenyl)-pyridin-2-yl-methyl]-thiazol-5-yl}-acetic acid] |  | > 6.30
